Reference: US9340577B2, “HLA binding motifs and peptides and their uses” (priority 1992, dated 2016)
pIC50: −log10 of the molar value. No end group written: not given here.

Experiments:
Test in all cases: biochemical
[1] = biological target: DRB1*0802 (Homo sapiens, UniProt P01903+P01911, A100R/A103L/A169T/F76Y/H45Y/I96F/K41T/L162R/M171V/P40S/Q125H/Q178H/Q39Y/Q99D/R218S/R42G/S66Y/V115G/W38E); format: binding
[2] = biological target: DRB1*1201 (Homo sapiens, UniProt P01903+P01911, A100R/A169T/D57E/D86V/F55L/H45Y/K41T/L162R/M171V/P40S/Q125H/Q178H/Q39Y/Q99D/R42G/S66L/T262R/V114A/V67L/W38E/Y59H/Y61H/Y89S); format: binding
[3] = biological target: DRB1*1101 (Homo sapiens, UniProt P01903+P01911, A100R/A169T/A87E/I96F/K41T/L162R/M171V/P40S/Q125H/Q178H/Q39Y/Q99D/R42S/S66Y/T262R/V115G/W38E); conditions: Binding affinity DRB1 *1101
[4] = biological target: DRB5*0101 (Homo sapiens, UniProt P01903+Q30154); conditions: Binding affinity DRB5 *0101
[5] = biological target: DRB1*0901 (Homo sapiens, UniProt P01903+P01911, A100R/A103E/D57H/D86V/F55Y/F60I/F76Y/I96F/K127E/L162R/M171V/P40D/Q125H/Q99R/R33Q/R42F/S133A/S66N/T210M/V115G/W38K/Y107V/Y59G/Y89S); format: binding

Sequence of DRB1*1101 (P01903 26-254 limits assumed, other chains not shown): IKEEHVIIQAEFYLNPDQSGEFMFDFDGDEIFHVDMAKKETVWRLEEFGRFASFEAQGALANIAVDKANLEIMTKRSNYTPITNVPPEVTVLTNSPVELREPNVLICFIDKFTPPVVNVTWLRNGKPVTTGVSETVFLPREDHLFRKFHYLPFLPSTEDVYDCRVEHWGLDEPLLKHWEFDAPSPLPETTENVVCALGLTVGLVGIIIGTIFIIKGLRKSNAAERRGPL

Compound	pIC50 [1]	pIC50 [2]	pIC50 [3]	pIC50 [4]	pIC50 [5]
CC[C@H](C)[C@H](NC(=O)[C@H](CO)NC(=O)[C@H](CC(N)=O)NC(=O)[C@H](C)NC(=O)[C@H](CC(C)C)NC(=O)[C@H](CCC(=O)O)NC(=O)[C@H](Cc1ccccc1)NC(=O)[C@@H](N)C(C)C)C(=O)N[C@H](C(=O)N[C@@H](CC(C)C)C(=O)N1CCC[C@H]1C(=O)N[C@@H](Cc1ccccc1)C(=O)N[C@@H](CC(=O)O)C(=O)N[C@@H](CS)C(=O)N[C@@H](CCCNC(=N)N)C(=O)O)C(C)C [Peptide 68.0124]	< 4.70	6.28	–	–	–
CC[C@H](C)[C@H](NC(=O)[C@H](CO)NC(=O)[C@H](CC(N)=O)NC(=O)[C@H](C)NC(=O)[C@H](CC(C)C)NC(=O)[C@H](CCC(=O)O)NC(=O)[C@H](Cc1ccccc1)NC(=O)[C@@H](NC(=O)[C@H](CCSC)NC(=O)CN)C(C)C)C(=O)N[C@H](C(=O)N[C@@H](CC(C)C)C(=O)N1CCC[C@H]1C(=O)N[C@@H](Cc1ccccc1)C(=O)N[C@@H](CC(=O)O)C(=O)O)C(C)C [Peptide 68.0123]	–	7.01	< 4.70	–	–
CC[C@H](C)[C@H](NC(=O)[C@H](CO)NC(=O)[C@H](CO)NC(=O)[C@H](CC(=O)O)NC(=O)[C@H](C)NC(=O)[C@H](CC(N)=O)NC(=O)[C@@H](NC(=O)[C@H](Cc1ccc(O)cc1)NC(=O)[C@H](C)NC(=O)[C@@H](NC(=O)CN)C(C)C)[C@@H](C)CC)C(=O)N[C@@H](CCC(=O)O)C(=O)NCC(=O)N[C@@H](CC(N)=O)C(=O)N[C@@H](Cc1ccc(O)cc1)C(=O)O [Peptide 68.0110]	< 4.70	5.26	< 4.70	< 4.70	–
CC[C@H](C)[C@H](NC(=O)[C@H](CO)NC(=O)[C@H](CC(C)C)NC(=O)[C@@H](NC(=O)[C@H](CC(C)C)NC(=O)[C@H](CC(=O)O)NC(=O)[C@H](Cc1c[nH]c2ccccc12)NC(=O)[C@@H](N)CCSC)C(C)C)C(=O)N[C@@H](C)C(=O)N[C@@H](CC(C)C)C(=O)N[C@@H](CO)C(=O)N[C@H](C(=O)NCC(=O)N[C@@H](CS)C(=O)N[C@H](C(=O)O)[C@@H](C)O)C(C)C [Peptide 68.0001]	< 4.70	5.34	< 4.70	< 4.70	–
PRSLQCVSLHLLSND [Peptide 68.0016]	–	5.41	–	< 4.70	< 4.70
GKVFRGNKVKNAQLA [Peptide 68.0096]	–	< 4.70	–	–	< 4.70
CSCC[C@H](NC(=O)[C@H](CC(C)C)NC(=O)[C@H](CC(=O)O)NC(=O)[C@@H](N)Cc1c[nH]cn1)C(=O)N[C@@H](CC(C)C)C(=O)N[C@@H](CC(C)C)C(=O)N[C@@H](CCCNC(=N)N)C(=O)N[C@@H](CC(C)C)C(=O)N[C@@H](CO)C(=O)N[C@@H](CCC(=O)O)C(=O)N1CCC[C@H]1C(=O)N[C@@H](C)C(=O)N[C@@H](CCC(=O)O)C(=O)N[C@@H](CC(C)C)C(=O)N[C@H](C(=O)O)[C@@H](C)O [Peptide 68.0073]	–	6.28	–	–	–
GAAVVHEIVRSFGTL [Peptide 68.0173]	–	6.29	–	–	–
CC[C@H](C)[C@H](NC(=O)[C@H](CCC(N)=O)NC(=O)[C@@H](NC(=O)[C@H](Cc1ccccc1)NC(=O)[C@H](CC(N)=O)NC(=O)[C@H](Cc1ccc(O)cc1)NC(=O)[C@H](CC(C)C)NC(=O)[C@H](Cc1ccccc1)NC(=O)[C@@H](N)CCCCN)[C@@H](C)O)C(=O)N1CCC[C@H]1C(=O)N[C@@H](Cc1c[nH]cn1)C(=O)N[C@@H](CC(C)C)C(=O)N[C@@H](C)C(=O)NCC(=O)N[C@H](C(=O)O)[C@@H](C)O [Peptide 68.0087]	–	5.91	–	–	–
CC[C@H](C)[C@H](NC(=O)[C@@H](N)CC(C)C)C(=O)N[C@@H](CCSC)C(=O)N[C@@H](Cc1ccc(O)cc1)C(=O)N[C@@H](CO)C(=O)N[C@@H](C)C(=O)N[C@@H](Cc1c[nH]cn1)C(=O)N[C@@H](CC(=O)O)C(=O)N[C@H](C(=O)N[C@H](C(=O)N[C@H](C(=O)N[C@@H](CO)C(=O)NCC(=O)N[C@@H](CC(C)C)C(=O)N[C@@H](CCC(N)=O)C(=O)O)C(C)C)[C@@H](C)O)[C@@H](C)O [Peptide 68.0050]	< 4.70	< 4.70	< 4.70	< 4.70	–
CSCC[C@H](NC(=O)[C@H](CCC(N)=O)NC(=O)[C@H](CC(C)C)NC(=O)CNC(=O)[C@H](CO)NC(=O)[C@@H](NC(=O)[C@@H](NC(=O)[C@@H](NC(=O)[C@@H](N)CC(=O)O)[C@@H](C)O)[C@@H](C)O)C(C)C)C(=O)N[C@@H](C)C(=O)N[C@@H](CC(C)C)C(=O)N[C@@H](CC(=O)O)C(=O)N[C@H](C(=O)N[C@@H](Cc1ccc(O)cc1)C(=O)N[C@@H](CC(N)=O)C(=O)O)C(C)C [Peptide 68.0051]	< 4.70	6.15	< 4.70	< 4.70	–
CC[C@H](C)[C@H](NC(=O)[C@H](Cc1ccccc1)NC(=O)[C@H](C)NC(=O)[C@H](CCCNC(=N)N)NC(=O)[C@H](CCC(=O)O)NC(=O)[C@H](CC(C)C)NC(=O)[C@H](Cc1ccccc1)NC(=O)[C@H](CCSC)NC(=O)[C@H](CC(C)C)NC(=O)[C@H](CCC(N)=O)NC(=O)[C@@H](N)CC(=O)O)C(=O)N[C@@H](CC(=O)O)C(=O)N1CCC[C@H]1C(=O)N[C@@H](CC(C)C)C(=O)NCC(=O)O [Peptide 68.0181]	–	6.84	–	–	–
CSCC[C@H](NC(=O)[C@H](CC(C)C)NC(=O)[C@@H]1CCCN1C(=O)[C@@H](NC(=O)[C@@H](N)CS)[C@@H](C)O)C(=O)N[C@@H](Cc1ccc(O)cc1)C(=O)N[C@@H](CO)C(=O)N[C@@H](CC(C)C)C(=O)N[C@H](C(=O)N[C@@H](Cc1c[nH]cn1)C(=O)N[C@@H](CC(N)=O)C(=O)N[C@@H](CC(C)C)C(=O)N[C@H](C(=O)N[C@@H](CCCCN)C(=O)N[C@@H](CCC(=O)O)C(=O)O)[C@@H](C)O)C(C)C [Peptide 68.0113]	–	5.76	–	–	–
CC[C@H](C)[C@H](NC(=O)CNC(=O)[C@H](CCC(N)=O)NC(=O)[C@H](CC(C)C)NC(=O)[C@@H](NC(=O)CNC(=O)[C@H](CC(N)=O)NC(=O)[C@H](CS)NC(=O)[C@@H](NC(=O)[C@H](CC(C)C)NC(=O)[C@@H]1CCCN1C(=O)CN)C(C)C)C(C)C)C(=O)N[C@H](C(=O)N[C@@H](CO)C(=O)N[C@@H](Cc1c[nH]c2ccccc12)C(=O)O)[C@@H](C)O [Peptide 68.0080]	–	5.73	–	–	< 4.70
CC[C@H](C)[C@H](N)C(=O)N[C@@H](CC(C)C)C(=O)N[C@@H](CC(C)C)C(=O)N[C@@H](Cc1c[nH]c2ccccc12)C(=O)N[C@@H](CCC(N)=O)C(=O)N1CCC[C@H]1C(=O)N[C@H](C(=O)N1CCC[C@H]1C(=O)N[C@H](C(=O)N[C@@H](Cc1c[nH]cn1)C(=O)N[C@H](C(=O)N[C@H](C(=O)N1CCC[C@H]1C(=O)N[C@@H](CC(C)C)C(=O)N[C@@H](CO)C(=O)O)C(C)C)[C@@H](C)O)C(C)C)[C@@H](C)CC [68,0038]	–	5.14	–	–	–
CC(C)C[C@H](NC(=O)[C@H](CCC(=O)O)NC(=O)[C@H](CCCCN)NC(=O)[C@H](C)N)C(=O)N[C@@H](CCCCN)C(=O)N[C@@H](Cc1ccccc1)C(=O)N[C@H](C(=O)N[C@H](C(=O)N[C@@H](CC(C)C)C(=O)N[C@H](C(=O)N[C@@H](Cc1ccccc1)C(=O)N[C@@H](CCCNC(=N)N)C(=O)N[C@@H](Cc1c[nH]cn1)C(=O)NCC(=O)N[C@@H](CC(=O)O)C(=O)O)C(C)C)[C@@H](C)O)C(C)C [68,0025]	–	6.16	–	–	–
HPQWVLTAAHCLKKN [Peptide 68.0003]	–	4.94	–	–	–
